Data published in US10688084B2 (priority 2016, dated 2020).
pIC50: −log10 of the molar value. Where two headings read alike, the source gives them in different places.

Assays:
[1] = cited from earlier work
acute inflammation = details: literature value; cited from earlier work
[2] = literature value; cited from earlier work
[3] = test system: subacute (formalin) edema; details: prototype of RU 2513089; cited from earlier work
Wistar rats [4] = details: prototype of RU 2513089; cited from earlier work
Wistar rats [5] = assay type: in vivo; details: for Δ t after 2 hours, (M ± SD) / Δ t after 3 hours, (M ± SD) / Δ t after 4 hours, (M ± SD) / Δ t after 5 hours, (M ± SD) / Δ t after 6 hours, (M ± SD) / Δ t after 7 hours, (M ± SD): 15 mg/kg
Procedure: In the study of antipyretic properties of the formula I compound, were taken female and male Wistar rats aged 6-7 weeks, with a body mass of 180-220 g. The number of animals in each group was 10.
The febrile reaction was caused by subcutaneous administration of a 20% suspension of baking yeast. The rectal temperature was measured with an electrothermometer prior to the introduction of yeast and 18 hours after it (the difference of these measurements is the estimated hyperthermic reaction). The preparation was administered to animals at the peak of hyperthermia once (after 18 hours). The antipyretic effect was evaluated by hyperthermia decrease 2 hours after the injection of the test substance, and then the effect dynamics was recorded at hourly intervals for 7 hours.
The introduction to rats was carried out in the amount of no more than 1 ml/100 g. The concentration of the resulting solution was 7.5 mg/ml.
The difference in temperature after preparation administration and after 18 hours of induction with yeast was taken as the parameter of hyperthermia decrease.
Animals were observed individually after administration throughout the study. […] Wilcoxon nonparametric criterion was used for statistical comparison of experimental groups. Differences were determined at the 0.05 level of significance. The statistical analysis was carried out using the R-studio program.

cyclooxygenase (COX) = test: COX activity assay (fluorometric kit, peroxidase activity) with skin fibroblast (HSF) cell lysate; assay type: biochemical; details: fibroblast cell lysate, 1.25 to 20 μM in the well
Wistar rats [6] = assay type: in vivo; details: for Analgesic effect, total/analgesic effect / Paw volume 0 hours / Paw volume 3 hours / Analgesic effect, %: 15 mg/kg
Procedure: In the study of analgesic properties of the formula I compound, were taken female and male Wistar rats aged 6-7 weeks with a body mass of 180-220 g. The number of animals in each group was 10.
[…] inflammation was modeled in rats by subplantar administration of 0.1 ml of a 1% solution of carrageenin (a sulfated polysaccharide from Irish sea moss) into the right hind paw. The substance was administered intragastrically using a gastric probe.
Inflammatory hyperalgesia (increased pain sensitivity of inflamed tissues in rats) was caused by carrageenin and was assessed by decrease of the pain sensitivity threshold—PST (by PST difference) to mechanical irritation (squeezing) of the paw tissue of the animal before the introduction of carrageenin and 3 hours after it. The measurement was performed on the inflamed paw. Used analgesimeter Ugo Basile S.R.L. (Italy) provides a gradual increased afterload on the rat's inflamed paw until a pain reaction appears (assessed by squeaking of animal or withdrawing the paw). The analyte was administered 2 h after carrageenin administration. […] An increase in the pain response threshold under the influence of the substances under study was expressed in an increase in the force of compression of the limb and characterized the intensity of the analgesic effect of the preparation. After the experiment, animals were euthanized by carbon dioxide inhalation method.
The introduction to rats was carried out in the amount of no more than 1 ml/100 g. The concentration of the resulting solution was 5 mg/ml.
(§1) To prepare a dose of 20 mg/kg, 40 ml of solution with a concentration of 5 mg/ml (50 mg/kg) were taken, transferred to a 100 ml measuring flask with accuracy class A, adjusted to 100 ml with 0.5% water solution of Tween-80 and the suspension was dispersed to a homogeneous consistency using a dispersant.
To prepare a dose of 10 mg/kg, 20 ml of solution with a concentration of 5 mg/ml (50 mg/kg) were taken, transferred to a 100 ml measuring flask with accuracy class A, adjusted to 100 ml with 0.5% aqueous solution of Tween-80 and the suspension was stirred to a homogeneous consistency with a magnetic stirrer MR Hei-Standard (Heidolph, Germany).
as §1, with “5” for “20”, “[…]” for “40”, “stirred” for “dispersed”, “with” for “using”, “magnetic stirrer.” for “dispersant.”

## 2-[(2,6-dichlorophenyl) amino] benzene acetic acid [Diclofenac sodium]
[1]; literature value
  UD50: 48 mg/kg

## CC(C)Cc1ccc(C(C)C(=O)O)cc1 (racemic) [Ibuprofen, (RS)-2-(4-isobutylphenyl) propionic acid]
Acute inflammation
  ED50 acute inflammation: 48 mg/kg
[1]; literature value
  UD50: 310 mg/kg
[2]
  LD50: 750 mg/kg

## COc1ccc2cc([C@H](C)C(=O)OCc3cnc(C)c(OC(=O)[C@@H](C)c4ccc5cc(OC)ccc5c4)c3COC(=O)[C@@H](C)c3ccc4cc(OC)ccc4c3)ccc2c1 [(2S,2'S)-(5-((S)-2-(6-methoxinaft-2-yl)propanoiloxy)-6-methylpyridine-3,4-diyl) bis (methylene) bis (2-(6-methoxynaphth-2-yl) propanoate)]
[3]
  Efficacy on the model of subacute (formalin) edema in vivo: pronounced anti-inflammatory effect
Wistar rats [4]
  Efficacy on the model of acute (carrageenin) edema in vivo: not effective enough

## CC(=O)Oc1ccccc1C(=O)O [Acetylsalicylic acid]
Acute inflammation
  ED50 acute inflammation: 98 mg/kg
[1]; literature value
  UD50: 240 mg/kg
  UD50/ED50 (safety index): 2.45
[2]
  LD50: 1600 mg/kg
  LD50/ED50 (therapeutic index): 16

## COc1ccc2c(c1)c(CC(=O)O)c(C)n2C(=O)c1ccc(Cl)cc1 [Indomethacin, 1-(4-chlorobenzoyl)-5-methoxy-2-methyl-1H-indol-3-acetic acid]
Acute inflammation
  ED50 acute inflammation: 10 mg/kg
[1]; literature value
  UD50: 10 mg/kg
  UD50/ED50 (safety index): 1
[2]
  LD50: 47 mg/kg
  LD50/ED50 (therapeutic index): 4.7

## COc1ccc2cc([C@H](C)C(=O)O)ccc2c1 [Naproxen, (S)-6-methoxy-α-methyl-2-naphthalenacetic acid, reference compound]
Wistar rats [5]; 15 mg/kg (or 65 μmol/kg)
  Level of temperature decrease: 0.74-1.6 °C
Wistar rats [5]; females
  Δ t after 2 hours, (M ± SD): 1.64
  Δ t after 3 hours, (M ± SD): 1.35
  Δ t after 4 hours, (M ± SD): 1.58
  Δ t after 5 hours, (M ± SD): 1.21
  Δ t after 6 hours, (M ± SD): 1.09
  Δ t after 7 hours, (M ± SD): 0.74
Wistar rats [5]; males
  Δ t after 2 hours, (M ± SD): 1.39
  Δ t after 3 hours, (M ± SD): 1.49
  Δ t after 4 hours, (M ± SD): 1.6
  Δ t after 5 hours, (M ± SD): 1.51
  Δ t after 6 hours, (M ± SD): 1.53
  Δ t after 7 hours, (M ± SD): 1.44
Cyclooxygenase (COX)
  pIC50: 5.02
Acute inflammation
  ED50 acute inflammation: 15 mg/kg
Wistar rats [6]; females
  Analgesic effect, total/analgesic effect: 10/7
  Paw volume 0 hours: 5.0 ± 6.2
  Paw volume 3 hours: 5.0 ± 3.2
Wistar rats [6]; females, control = 100.0
  Analgesic effect, %: 195.3 ± 125.3%
Wistar rats [6]; intragastric
  Dose at which a pronounced anesthetic effect is exhibited: 15 mg/kg
Wistar rats [6]; males
  Analgesic effect, total/analgesic effect: 10/7
Wistar rats [6]; rat, in vivo
  Analgesic effect, %: 234.5 ± 160.2%
  Paw volume 0 hours: 5.0 ± 2.9
  Paw volume 3 hours: 6.7 ± 4.6
[1]; literature value
  UD50: 49 mg/kg

## CCCCC1C(=O)N(c2ccccc2)N(c2ccccc2)C1=O [Phenylbutazone]
[1]; literature value
  UD50: 120 mg/kg

## CN1C(C(=O)Nc2ccccn2)=C(O)c2ccccc2S1(=O)=O [Pyroxicam]
Acute inflammation
  ED50 acute inflammation: 20 mg/kg
[1]; in vivo
  UD50: 36 mg/kg
[1]; literature value
  UD50/ED50 (safety index): 1.8
[2]
  LD50: 290 mg/kg
  LD50/ED50 (therapeutic index): 15
